Results: patent US9980973B2, “Bicyclic heterocycle compounds and their uses in therapy” (ASTEX THERAPEUTICS LIMITED, priority 2012, dated 2018)
pEC50: −log10 of the molar value. Structures can show the parent of a compound that is named as a salt. Where two headings read alike, the source gives them in different places.

Tests used:
[1] = target: T1, BIR3 domain of human XIAP (Homo sapiens, UniProt P98170); test: XIAP in vitro competitive displacement binding assay (fluorescence polarization); conditions: for inhibition at 0.04 µM: 1 h, PI at 0.04 μM, read-out: Xiap IC50 or PI μM (PI); for IC50: plain number = IC50, average where more than one data point, read-out: Xiap IC50 or PI μM (IC50)
T1 construct: BIR3 domain of human XIAP (residues 252-350) fused to a His-tag; His-tag (cleaved yes); made in house; host or cells: Escherichia coli
T1 sequence (P98170 252-350): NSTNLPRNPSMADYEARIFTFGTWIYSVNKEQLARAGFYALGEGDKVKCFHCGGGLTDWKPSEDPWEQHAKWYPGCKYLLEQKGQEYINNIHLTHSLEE

[2] = tested on: EVSA-T (human breast carcinoma); test: Anti-proliferative activity, Alamar Blue assay, EVSA-T; format: cell-based
[3] = Homo sapiens, EVSA-T, 72 h, EVSA-T cells, 72 hours, Alamar Blue, read-out: EVSA-T prolif
[4] = Homo sapiens, EVSA-T, read-out: EC50 in EVSA-T cell line assays
[5] = EVSA-T cells, 72 hours, Alamar Blue, dihydrochloride, read-out: EVSA-T prolif

| Compound | inhibition at 0.04 µM [1] [%] | pEC50 [2, 3] | pEC50 [2, 4] | IC50 [1] [µM] | pEC50 [2, 5] | EVSA-T prolif (% at concentration) ([2]; at 0.001 μM) [% at] |
| --- | --- | --- | --- | --- | --- | --- |
| C[C@@H]1CN(CC(=O)N2CC(C)(C)c3ncc(C(O)c4cccc(F)c4F)cc32)[C@@H](CN2[C@H](C)COC[C@H]2C)CN1 (single isomer, unassigned) [Example 111, (R or S)-1-{6-[(2,3-Difluorophenyl)(hydroxy)meth-yl]-3,3-dimethyl-1H,2H,3H-pyrrolo[3,2-b]pyridin-1-yl}-2-[(2R,5R)-2-{[(3R,5R)-3,5-dimethylmorpholin-4-yl]methyl}-5-methylpiperazin-1-yl]ethan-1-one dihydrochloride] | 45 | 7.60 | > 6.00 |  |  |  |
| CCCC(F)(F)c1cc2c(cn1)C(C)(C)CN2C(=O)CN1C[C@@H](C)NC[C@@H]1CN1[C@H](C)COC[C@H]1C [Example 44, 1-[6-(1,1-Difluorobutyl)-3,3-dimethyl-1H,2H,3H-pyrrolo[3,2-c]pyridin-1-yl]-2-[2R,5R)-2-{[(3R,5R)-3,5-dimethylmorpholin-4-yl]methyl}-5-methylpiperazin-1-yl]ethan-1-one, dihydrochloride] | 78 | 9.00 | > 6.00 |  |  |  |
| COC[C@@H]1COCCN1C[C@H]1CN[C@H](C)CN1CC(=O)N1CC(C)(C)c2cnc(Cc3ccc(F)cc3)cc21 [Example 96, 1-{6-[(4-Fluorophenyl)methyl]-3,3-dimethyl-1H,2H,3H-pyrrolo[3,2-c]pyridin-1-yl}-2-[(2R,5R)-2-{[(3R)-3-(methoxymethyl)morpholin-4-yl]methyl}-5-methylpiperazin-1-yl]ethan-1-one dihydrochloride] | 49 | 8.77 | > 6.00 |  |  |  |
| C[C@@H]1CN(CC(=O)N2CC(C)(C)c3ncc(Cc4ccc(F)cc4)cc32)[C@@H](CN2CCOCC2(C)C(=O)O)CN1 (stereo partly drawn) [Example 59, 4-{[(2R,5R)-1-(2-{6-[(4-Fluorophenyl)methyl]-3,3-dimethyl-1H,2H,3H-pyrrolo[3,2-b]pyridin-1-yl}-2-oxoethyl)-5-methylpiperazin-2-yl]methyl}-3-methylmorpholine-3-carboxylic acid, dihydrochloride] |  | 7.38 | > 6.00 | 0.34 |  |  |
| C[C@@H]1CN(CC(=O)N2CC(C)(C)c3ncc(C(O)c4cc(F)ccc4F)cc32)[C@@H](CN2[C@H](C)COC[C@H]2C)CN1 (single isomer, unassigned) [Example 116, 1-{(R or S)-6-[(2,5-Difluorophenyl)(hydroxy)meth-yl]-3,3-dimethyl-1H,2H,3H-pyrrolo[3,2-b]pyridin-1-yl}-2-[(2R,5R)-2-{[(3R,5R)-3,5-dimethylmorpholin-4-yl]methyl}-5-methylpiperazin-1-yl]ethan-1-one dihydrochloride] | 47 |  |  |  | 7.26 |  |
| C[C@@H]1CN(CC(=O)N2CC(C)(C)c3ncc(Cc4ccc(F)cc4)cc32)[C@@H](CN2CCOC[C@@]2(C)CO)CN1 [Example 51, 1-{6-[(4-Fluorophenyl)methyl]-3,3-dimethyl-1H,2H,3H-pyrrolo[3,2-b]pyridin-1-yl}-2-[(2R,5R)-2-{[(3R)-3-(hydroxymethyl)-3-methylmorpholin-4-yl]methyl}-5-methylpiperazin-1-yl]ethan-1-one, dihydrochloride] | 44 | 8.66 | > 6.00 |  |  |  |
| C[C@@H]1CN(CC(=O)N2CC(C)(C)c3cc(C#N)c(Cc4ccc(F)cc4)cc32)[C@@H](CN2[C@H](C)COC[C@H]2C)CN1 [Example 92, 1-{2-[(2R,5R)-2-{[(3R,5R)-3,5-Dimethylmorpholin-4-yl]methyl}-5-methylpiperazin-1-yl]acetyl}-6-[(4-fluroophenyl)methyl]-3,3-dimethyl-2,3-dihydro-1H-indole-5-carbonitrile dihydrochloride] | 54 | 8.57 | > 6.00 |  |  |  |
| CCCC(F)(F)c1cc2c(cn1)C(C)(C)CN2C(=O)CN1C[C@@H](C)NC[C@@H]1CN1CCOC[C@@]1(C)CO (single isomer, unassigned) [Example 68, dihydrochloride] | 69 | 7.66 | > 6.00 |  |  |  |
| C[C@@H]1CN(CC(=O)N2CC(C)(C)c3ncc(C(O)c4cccc(F)c4)cc32)[C@@H](CN2[C@H](C)COC[C@H]2C)CN1 (single isomer, unassigned) [Example 105, 2-[(2R,5R)-2-{[(3R,5R)-3,5-Dimethylmorpholin-4-yl]methyl}-5-methylpiperazin-1-yl]-1-{6-[(R or S)-(3-fluorophenyl)-(hydroxy)methyl]-3,3-dimethyl-1H,2H,3H-pyrrolo[3,2-b]pyridin-1-yl}ethan-1-one dihydrochloride] | 60 |  | > 6.00 |  | 7.46 |  |
| C[C@@H]1CN(CC(=O)N2CC(C)(C)c3cnc(Cc4ccc(F)cc4)cc32)[C@@H](CN2[C@H](C)COC[C@H]2C)CN1 [Example 55, 2-[(2R,5R)-2-{[(3R,5R)-3,5-Dimethylmorpholin-4-yl]methyl}-5-methylpiperazin-1-yl]-1-{6-[(4-fluorophenyl)methyl]-3,3-dimethyl-1H,2H,3H-pyrrolo[3,2-c]pyridin-1-yl}ethan-1-one, dihydrochloride] | 59 | 9.64 | > 6.00 |  |  |  |
| C[C@@H]1CN(CC(=O)N2CC(C)(C)c3ncc(Cc4ccc(F)cc4)cc32)[C@@H](CN2CCN(C)C(=O)[C@H]2C)CN1 [Example 34, (3R)-4-{[(2R,5R)-1-(2-{6-[(4-Fluorophenyl)methyl]-3,3-dimethyl-1H,2H,3H-pyrrolo[3,2-b]pyridin-1-yl}-2-oxoethyl)-5-methylpiperazin-2-yl]methyl}-1,3-dimethylpiperazin-2-one dihydrochloride] | 42 | 9.07 | > 6.00 |  |  |  |
| C[C@@H]1CN(CC(=O)N2CC(C)(C)c3ncc(Cc4ccc(F)cc4)cc32)[C@@H](CN2CC3CCC(C2)O3)CN1 [Example 18, 1-{6-[(4-Fluorophenyl)methyl]-3,3-dimethyl-1H,2H,3H-pyrrolo[3,2-b]pyridin-1-yl}-2-[(2R,5R)-5-methyl-2-{8-oxa-3-azabicyclo[3.2.1]octan-3-ylmethyl}piperazin-1-yl]ethan-1-one dihydrochloride] | 35 | 8.74 | > 6.00 |  |  |  |
| CC1N(C[C@H]2CN[C@H](C)CN2CC(=O)N2CC(C)(C)c3ncc(Cc4ccc(F)cc4)cc32)CCOC1(C)C (stereo partly drawn) [Example 32, 1-{6-[(4-Fluorophenyl)methyl]-3,3-dimethyl-1H,2H,3H-pyrrolo[3,2-b]pyridin-1-yl}-2-[(2R,5R)-5-methyl-2-[(2,2,3-trimethylmorpholin-4-yl)methyl]piperazin-1-yl]ethan-1-one dihydrochloride] | 42 | 9.15 | > 6.00 |  |  |  |
| CC(=O)N1CCN(C[C@H]2CN[C@H](C)CN2CC(=O)N2CC(C)(C)c3cnc(Cc4ccc(F)cc4)cc32)[C@H](C)C1 [Example 56, 2-[(2R,5R)-2-{[(2R)-4-Acetyl-2-methylpiperazin-1-yl]methyl}-5-methylpiperazin-1-yl]-1-{6-[(4-fluorophenyl)methyl]-3,3-dimethyl-1H,2H,3H-pyrrolo[3,2-c]pyridin-1-yl}ethan-1-one, dihydrochloride] | 70 | 9.38 | > 6.00 |  |  |  |
| CCCC(F)(F)c1cc2c(cn1)C(C)(C)CN2C(=O)CN1C[C@@H](C)NC[C@@H]1CN1CCN(C(C)=O)C[C@H]1C [Example 60, 2-[(2R,5R)-2-{[(2R)-4-Acetyl-2-methylpiperazin-1-yl]methyl}-5-methylpiperazin-1-yl]-1-[6-(1,1-difluorobutyl)-3,3-dimethyl-1H,2H,3H-pyrrolo[3,2-c]pyridin-1-yl]ethan-1-one, dihydrochloride] | 74 | 8.17 | > 6.00 |  |  |  |
| C[C@@H]1CN(CC(=O)N2CC(C)(C)c3ncc(Cc4ccc(F)cc4F)cc32)[C@@H](CN2[C@H](C)COC[C@H]2C)CN1 [Example 54, 1-{6-[(2,4-Difluorophenyl)methyl]-3,3-dimethyl-1H,2H,3H-pyrrolo[3,2-b]pyridin-1-yl}-2-[(2R,5R)-2-{[(3R,5R)-3,5-dimethylmorpholin-4-yl]methyl}-5-methylpiperazin-1-yl]ethan-1-one, dihydrochloride] | 59 |  | > 6.00 |  |  | 96 |
| C[C@@H]1CN(CC(=O)N2CC(C)(C)c3ncc(Cc4ccc(F)cc4)cc32)[C@@H](CN2CCC[C@@H]2C(F)(F)F)CN1 [Example 38, 1-{6-[(4-Fluorophenyl)methyl]-3,3-dimethyl-1H,2H,3H-pyrrolo[3,2-b]pyridin-1-yl}-2-[(2R,5R)-5-methyl-2-{[(2R)-2-(trifluoromethyl)pyrrolidin-1-yl]methyl}piperazin-1-yl]ethan-1-one] |  | 7.47 | > 6.00 | 0.48 |  |  |
| C[C@@H]1CN(CC(=O)N2CC(C)(C)c3ncc(C(O)c4c(F)cccc4F)cc32)[C@@H](CN2[C@H](C)COC[C@H]2C)CN1 (single isomer, unassigned) [Example 117, 1-{(R or S)-6-[(2,6-Difluorophenyl)(hydroxy)meth-yl]-3,3-dimethyl-1H,2H,3H-pyrrolo[3,2-]pyridin-1-yl}-2-[(2R,5R)-2-{[(3R,5R)-3,5-dimethylmorpholin-4-yl]methyl}-5-methylpiperazin-1-yl]ethan-1-one dihydrochloride] | 41 |  |  |  |  |  |
